Results from patent US8013153B2, “Substituted pyrimidine kinase inhibitors” (Janssen Pharmaceutica, N.V., priority 2006, dated 2011).

Experiments:
murine Aurora-A = target: T1, murine Aurora-A (Mus musculus, UniProt P97477); assay: Aurora-A Screening Assay; assay type: biochemical
T1 construct: replaced with the full length protein encoding the murine Aurora-A; made in house; host or cells: sf9 insect cells
T1 sequence (P97477 1-395): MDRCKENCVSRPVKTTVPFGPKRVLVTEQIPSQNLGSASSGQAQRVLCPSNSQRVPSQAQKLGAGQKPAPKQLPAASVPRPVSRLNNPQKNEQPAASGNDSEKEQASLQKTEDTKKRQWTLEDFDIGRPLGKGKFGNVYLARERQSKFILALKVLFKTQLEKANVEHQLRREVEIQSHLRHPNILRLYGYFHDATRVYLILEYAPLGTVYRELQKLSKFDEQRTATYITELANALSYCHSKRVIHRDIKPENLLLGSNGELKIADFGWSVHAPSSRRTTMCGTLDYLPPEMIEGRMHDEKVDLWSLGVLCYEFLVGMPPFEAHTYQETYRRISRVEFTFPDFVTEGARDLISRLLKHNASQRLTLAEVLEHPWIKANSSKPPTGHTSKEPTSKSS

A375 malignant melanoma = assay: Inhibition of in vitro cell proliferation (A375); assay type: cell-based, human; settings: Homo sapiens, A-375, 14C-thymidine incorporation;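 also: cells plated for 24 h, given compound for 24 h, then labelled with 14C-thymidine for another 24 h, with DMSO-only wells as control and counts read by scintillation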
HCT-116 colon carcinoma = assay: Inhibition of in vitro cell proliferation (HCT116); assay type: cell-based, human; settings: Homo sapiens, HCT-116, 14C-thymidine incorporation;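 also: cells exposed to compound for 24 h, then 14C-thymidine added for a further 24 h and its uptake into DNA counted by scintillation, DMSO-only wells as control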
[1] = target: T2, rat VEGF-R2 kinase domain (Rattus norvegicus, UniProt O08775); assay: VEGF-R2 Screening Assay; assay type: biochemical; settings: > means no observed 50% inhibition at the indicated test concentration; ~ means approximately 50% inhibition at that concentration; read-out: IC50 VEGF-R2
T2 construct: amino acids 786-1343 of the rat VEGF-R2 kinase domain; polyhistidine (N)
T2 sequence (O08775 786-1343): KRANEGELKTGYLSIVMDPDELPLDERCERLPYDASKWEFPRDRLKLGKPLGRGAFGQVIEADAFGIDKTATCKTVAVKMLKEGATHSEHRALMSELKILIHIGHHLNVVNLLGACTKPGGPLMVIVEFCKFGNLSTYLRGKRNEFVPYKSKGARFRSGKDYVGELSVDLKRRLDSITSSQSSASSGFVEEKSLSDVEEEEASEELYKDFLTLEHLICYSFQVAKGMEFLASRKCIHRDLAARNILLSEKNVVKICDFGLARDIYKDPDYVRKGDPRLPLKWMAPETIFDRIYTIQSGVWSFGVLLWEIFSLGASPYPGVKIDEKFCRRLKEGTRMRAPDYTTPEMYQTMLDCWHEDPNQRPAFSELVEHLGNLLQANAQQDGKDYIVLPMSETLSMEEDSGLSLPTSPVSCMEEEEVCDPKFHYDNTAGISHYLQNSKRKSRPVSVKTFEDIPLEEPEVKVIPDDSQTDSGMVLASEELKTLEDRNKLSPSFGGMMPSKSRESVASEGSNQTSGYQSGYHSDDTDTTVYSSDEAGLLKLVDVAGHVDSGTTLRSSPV

[2] = tested on: HeLa cervical adenocarcinoma; assay: Inhibition of in vitro cell proliferation (HeLa); assay type: cell-based, human; settings: Homo sapiens, 14C-thymidine incorporation;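 also: cells exposed to compound for 24 h, then labelled 24 h with methyl 14C-thymidine, with uptake into DNA counted by scintillation against DMSO-only control wells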
HER2 cytoplasmic domain = target: T3, HER2 cytoplasmic domain (Homo sapiens, UniProt P04626); assay: HER2 Kinase Screening Assay; assay type: biochemical; settings: > means no observed 50% inhibition at the indicated test concentration; ~ means approximately 50% inhibition at that concentration
T3 construct: polyhistidine (N)
T3 sequence (P04626 676-1255 limits assumed): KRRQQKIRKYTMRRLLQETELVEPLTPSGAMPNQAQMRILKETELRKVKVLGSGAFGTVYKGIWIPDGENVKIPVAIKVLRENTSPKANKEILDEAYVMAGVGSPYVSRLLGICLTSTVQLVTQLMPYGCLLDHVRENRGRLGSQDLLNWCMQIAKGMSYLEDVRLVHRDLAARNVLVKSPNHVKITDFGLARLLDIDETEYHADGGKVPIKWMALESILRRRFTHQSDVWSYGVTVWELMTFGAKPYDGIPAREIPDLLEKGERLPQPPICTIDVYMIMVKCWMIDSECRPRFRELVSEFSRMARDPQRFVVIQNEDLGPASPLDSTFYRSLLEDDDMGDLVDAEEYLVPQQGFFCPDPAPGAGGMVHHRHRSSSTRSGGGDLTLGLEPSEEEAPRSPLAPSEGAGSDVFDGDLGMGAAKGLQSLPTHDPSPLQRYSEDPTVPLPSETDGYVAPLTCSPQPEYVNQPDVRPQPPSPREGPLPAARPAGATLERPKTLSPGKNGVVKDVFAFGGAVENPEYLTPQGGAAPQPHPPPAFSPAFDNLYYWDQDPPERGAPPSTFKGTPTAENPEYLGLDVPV

CDK1:Cyclin-B = target: T4, CDK1:Cyclin-B (Homo sapiens, UniProt P06493); assay: CDK1 Screening Assay; assay type: biochemical
T4 construct: purchased New England Biolabs, Beverly, Mass; 6020; host or cells: insect cells
T4 sequence (P06493 whole entry): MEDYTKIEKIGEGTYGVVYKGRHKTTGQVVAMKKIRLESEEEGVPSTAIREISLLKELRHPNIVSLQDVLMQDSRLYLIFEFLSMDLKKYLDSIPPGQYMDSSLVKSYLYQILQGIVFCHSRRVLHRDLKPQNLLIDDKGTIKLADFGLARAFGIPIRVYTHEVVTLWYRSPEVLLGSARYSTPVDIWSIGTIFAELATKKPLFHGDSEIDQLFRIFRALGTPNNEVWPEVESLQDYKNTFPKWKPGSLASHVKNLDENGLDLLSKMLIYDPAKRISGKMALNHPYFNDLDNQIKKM
T4 sequence (P14635 whole entry partner): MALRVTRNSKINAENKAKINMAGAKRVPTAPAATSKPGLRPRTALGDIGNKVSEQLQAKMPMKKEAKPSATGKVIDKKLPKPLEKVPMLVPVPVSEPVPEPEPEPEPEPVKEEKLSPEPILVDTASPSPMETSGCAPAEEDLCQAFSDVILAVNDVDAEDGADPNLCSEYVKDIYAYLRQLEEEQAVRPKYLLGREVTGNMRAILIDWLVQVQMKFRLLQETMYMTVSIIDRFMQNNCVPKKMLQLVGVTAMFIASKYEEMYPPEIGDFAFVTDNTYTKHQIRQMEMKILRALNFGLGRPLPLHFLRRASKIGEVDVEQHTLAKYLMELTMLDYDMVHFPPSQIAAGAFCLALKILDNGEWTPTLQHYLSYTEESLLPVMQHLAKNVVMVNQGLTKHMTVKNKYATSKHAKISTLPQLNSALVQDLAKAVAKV

`CON=Cc1c(N)ncnc1Oc1ccc(NC(=O)NC(C)C)c(Cl)c1` [Cpd 80, 1-{4-[6-amino-5-(methoxyimino-methyl)-pyrimidin-4-yloxy]-2-chloro-phenyl}-3-isopropyl-urea] was tested, and the IC50 (murine Aurora-A) was > 10 µM, the IC50 (A375 malignant melanoma) was > 1 µM and the IC50 (HCT-116 colon carcinoma) was > 10 µM. The IC50 [1] was 72.9 nM, the IC50 [2] was > 10 µM and the IC50 (HER2 cytoplasmic domain) was > 10 µM. For the same compound, the IC50 (CDK1:Cyclin-B) was > 100 µM.
`CON=Cc1c(N)ncnc1Oc1ccc(NC(=O)Nc2ccccn2)c(Cl)c1` [Cpd 86, 1-{4-[6-amino-5-(methoxyimino-methyl)-pyrimidin-4-yloxy]-2-chloro-phenyl}-3-pyridin-2-yl-urea] was tested, and the IC50 (murine Aurora-A) was > 100 µM, the IC50 (A375 malignant melanoma) was 6.25 µM and the IC50 (HCT-116 colon carcinoma) was > 10 µM. For the same compound, the IC50 [1] was 34 nM, the IC50 [2] was > 10 µM and the IC50 (HER2 cytoplasmic domain) was > 100 µM. The IC50 (CDK1:Cyclin-B) was > 100 µM.
`CON=Cc1c(N)ncnc1Oc1ccc(NC(=O)Nc2cc(C)on2)c(Cl)c1` [Cpd 93, 1-{4-[6-amino-5-(methoxyimino-methyl)-pyrimidin-4-yloxy]-2-chloro-phenyl}-3-(5-methyl-isoxazol-3-yl)-urea] was tested, and the IC50 (murine Aurora-A) was > 100 µM, the IC50 (A375 malignant melanoma) was 2.12 µM and the IC50 (HCT-116 colon carcinoma) was 3.12 µM. For the same compound, the IC50 [1] was 2 nM, the IC50 [2] was 10 µM and the IC50 (HER2 cytoplasmic domain) was > 10 µM. The IC50 (CDK1:Cyclin-B) was > 100 µM.
`Cc1cc2c(F)c(Oc3ncnc(N)c3C=NOCCCCN3CCOCC3)ccc2[nH]1` [Cpd 26, 4-amino-6-(4-fluoro-2-methyl-1H-indol-5-yloxy)-pyrimidine-5-carbaldehyde O-(4-morpholin-4-yl-butyl)-oxime] was tested, and the IC50 (murine Aurora-A) was > 100 µM, the IC50 (A375 malignant melanoma) was > 100 µM and the IC50 (HCT-116 colon carcinoma) was > 1 µM. For the same compound, the IC50 [1] was 48 nM, the IC50 [2] was > 100 µM and the IC50 (HER2 cytoplasmic domain) was 1.02 µM. For the same compound, the IC50 (CDK1:Cyclin-B) was > 100 µM.
`Cc1cc2c(F)c(Oc3ncnc(N)c3C=NOCCCCN3CCCC3)ccc2[nH]1` [Cpd 25, 4-amino-6-(4-fluoro-2-methyl-1H-indol-5-yloxy)-pyrimidine-5-carbaldehyde O-(4-pyrrolidin-1-yl-butyl)-oxime] was tested, and the IC50 (murine Aurora-A) was > 10 µM, the IC50 (A375 malignant melanoma) was > 100 µM and the IC50 (HCT-116 colon carcinoma) was 0.1 µM. For the same compound, the IC50 [1] was 130 nM, the IC50 [2] was > 100 µM and the IC50 (HER2 cytoplasmic domain) was 0.596 µM. The IC50 (CDK1:Cyclin-B) was > 100 µM.
`CON=Cc1c(N)ncnc1Oc1ccc(NC(=O)NCCO)c(Cl)c1` [Cpd 81, 1-{4-[6-amino-5-(methoxyimino-methyl)-pyrimidin-4-yloxy]-2-chloro-phenyl}-3-(2-hydroxy-ethyl)-urea] was tested, and the IC50 (murine Aurora-A) was > 100 µM, the IC50 (A375 malignant melanoma) was 3.91 µM and the IC50 (HCT-116 colon carcinoma) was 4.06 µM. The IC50 [1] was 168 nM, the IC50 [2] was 4.27 µM and the IC50 (HER2 cytoplasmic domain) was > 100 µM. The IC50 (CDK1:Cyclin-B) was > 100 µM.
For `CON=Cc1c(N)ncnc1Oc1ccc(NC(=O)NCCN(C)C)c(Cl)c1` [Cpd 82, 1-{4-[6-amino-5-(methoxyimino-methyl)-pyrimidin-4-yloxy]-2-chloro-phenyl}-3-(2-dimethylamino-ethyl)-urea], the IC50 (murine Aurora-A) was > 100 µM, the IC50 (A375 malignant melanoma) was > 10 µM and the IC50 (HCT-116 colon carcinoma) was > 10 µM. The IC50 [1] was 285 nM, the IC50 [2] was > 10 µM and the IC50 (HER2 cytoplasmic domain) was > 10 µM. The IC50 (CDK1:Cyclin-B) was > 100 µM.
`CON=Cc1c(N)ncnc1Oc1ccc2c(c1)cc(C)n2C(=O)NCCCO` [Cpd 40, 5-[6-amino-5-(methoxyimino-methyl)-pyrimidin-4-yloxy]-2-methyl-indole-1-carboxylic acid (3-hydroxy-propyl)-amide] was tested, and the IC50 (murine Aurora-A) was > 100 µM, the IC50 (A375 malignant melanoma) was 2.59 µM and the IC50 (HCT-116 colon carcinoma) was 4.54 µM. For the same compound, the IC50 [1] was 30.4 nM, the IC50 [2] was 4.24 µM and the IC50 (HER2 cytoplasmic domain) was > 10 µM. The IC50 (CDK1:Cyclin-B) was 28 µM.
For `CON=Cc1c(N)ncnc1Oc1ccc(NC(C)=O)c(Cl)c1` [Cpd 94, N-{4-[6-amino-5-(methoxyimino-methyl)-pyrimidin-4-yloxy]-2-chloro-phenyl}-acetamide], the IC50 (murine Aurora-A) was > 100 µM, the IC50 (A375 malignant melanoma) was 2.69 µM and the IC50 (HCT-116 colon carcinoma) was 3.62 µM. For the same compound, the IC50 [1] was 2210 nM, the IC50 [2] was 4.02 µM and the IC50 (HER2 cytoplasmic domain) was > 100 µM. For the same compound, the IC50 (CDK1:Cyclin-B) was > 100 µM.
For `CON=Cc1c(N)ncnc1Oc1ccc(NC(=O)Nc2ccc(F)cc2)c(Cl)c1` [Cpd 60, 1-{4-[6-amino-5-(methoxyimino-methyl)-pyrimidin-4-yloxy]-2-chloro-phenyl}-3-(4-fluoro-phenyl)-urea], the IC50 (murine Aurora-A) was > 10 µM, the IC50 (A375 malignant melanoma) was > 10 µM and the IC50 (HCT-116 colon carcinoma) was > 10 µM. The IC50 [1] was 2.8 nM, the IC50 [2] was > 10 µM and the IC50 (HER2 cytoplasmic domain) was > 100 µM. For the same compound, the IC50 (CDK1:Cyclin-B) was > 100 µM.
